PubChem BioAssay (NCI)
“And” between values parts separate entries of the source, which are not always exact repeats. Equal entries are not always repeated.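 A five-concentration, 48-hour dose response in 96-well plates underlies each endpoint, interpolated linearly between surrounding concentrations. The concentration for 50% growth inhibition is given as GI50. TGI denotes the concentration required for complete inhibition of growth.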

Experiments:
Assay in all cases: DTP human tumour cell line panel, 48 h
SK-MEL-28 melanoma = tested on: SK-MEL-28 melanoma
SNB-19 CNS = tested on: SNB-19 CNS
ACHN renal = tested on: ACHN renal
SR leukemia = tested on: SR leukemia
HCT-116 colon = tested on: HCT-116 colon
MCF7 breast = tested on: MCF7 breast
HCT-15 colon = tested on: HCT-15 colon
NCI-H522 lung = tested on: NCI-H522 lung
EKVX NSCLC = tested on: EKVX NSCLC
CAKI-1 renal = tested on: CAKI-1 renal

Row | SMILES | GI50 (SK-MEL-28 melanoma) | TGI (SK-MEL-28 melanoma) | GI50 (SNB-19 CNS) | TGI (SNB-19 CNS) | GI50 (ACHN renal) | TGI (ACHN renal) | GI50 (SR leukemia) | TGI (SR leukemia) | GI50 (HCT-116 colon) | TGI (HCT-116 colon) | GI50 (MCF7 breast) | TGI (MCF7 breast) | GI50 (HCT-15 colon) | TGI (HCT-15 colon) | GI50 (NCI-H522 lung) | TGI (NCI-H522 lung) | GI50 (EKVX NSCLC) | TGI (EKVX NSCLC) | GI50 (CAKI-1 renal) | TGI (CAKI-1 renal)
1 | CCCCCCCCCCCCNC(=O)N[C@H](C(=O)N[C@H]1/C=C/OCCNC(=O)/C=C/[C@H](C(C)C)NC1=O)C(C)C | 3.28 µM | 26.2 µM | 4.3 µM | > 100 µM | 51.3 µM | > 100 µM | 0.393 µM | 20.9 µM | 1.67 µM | 21.7 µM | 0.385 µM | > 100 µM | > 66.3 µM | > 100 µM | 0.372 µM | 5.2 µM | 36.6 µM | > 100 µM | > 100 µM | > 100 µM
2 | CC1(C)N=C(N)N=C(N)N1c1cccc(CC(=O)Nc2ccccc2)c1 | 9.15 µM | 77 µM | 39.7 µM | > 100 µM | > 100 µM | > 100 µM | 2.53 µM | > 100 µM | 4.28 µM | > 100 µM | 7.56 µM | > 100 µM | > 100 µM | > 100 µM | 47.5 µM | > 100 µM | > 100 µM | > 100 µM | > 100 µM | > 100 µM
3 | COc1ncc(-c2ccc3nc(N)n(-c4ccccc4C(F)(F)F)c(=O)c3c2)cc1S(=O)(=O)Nc1ccc(F)cc1F | 3.63 µM | 14.1 µM | 7.87 µM | 45.8 µM | 5.77 µM | > 100 µM | 1.35 µM | 17.3 µM | 1.7 µM | 15.9 µM | 2.05 µM | 29.4 µM | 0.758 µM | 6.96 µM | 3.04 µM | 24.5 µM | 0.86 µM | > 100 µM | 0.122 µM | > 100 µM
4 | COc1cc(C(=O)N[C@@H]2CCCN(C)C2)ccc1Nc1ncc2c(n1)N(C1CCCC1)CC(C)(C)C(=O)N2C | 0.153 µM | 2.04 µM | 0.23 µM | 20.4 µM | 1.55 µM | 19.4 µM | 0.0369 µM | 2.49 µM | 0.0509 µM | 5.21 µM | 0.0278 µM | 11.6 µM | 0.38 µM | 14 µM | 0.0209 µM | 0.0575 µM | 1.11 µM | 24 µM | 0.984 µM | 19.7 µM
5 | O=c1[nH]c2c(ccc3cnccc32)c2c1CCC2 | 0.306 µM | 0.84 µM | 0.356 µM | > 100 µM | 0.279 µM | > 100 µM | – | > 100 µM | 0.267 µM | > 45.8 µM | 0.317 µM | – | 0.357 µM | > 100 µM | 0.277 µM | – | 1.47 µM | > 100 µM | 0.308 µM | > 100 µM
6 | CC[C@@]12CC(C(=O)OC)=C3Nc4ccccc4[C@@]34CCN(C[C@H]3O[C@H]31)[C@@H]24 | 86.2 µM | > 100 µM | 16.1 µM | 30.7 µM | > 100 µM | > 100 µM | 24 µM | > 100 µM | 43.8 µM | > 100 µM | 46 µM | > 100 µM | 33.5 µM | > 100 µM | 20.9 µM | > 100 µM | 40.2 µM | > 100 µM | 36.9 µM | > 100 µM
7 | C=C(CN1CCc2ccccc2C1)c1ccc(C(=O)Nc2cccc(N)c2)cc1 | 31.1 µM | > 100 µM | 35.9 µM | > 100 µM | 28.8 µM | 87.1 µM | 11.7 µM | 54.8 µM | 16 µM | 33.5 µM | 17.5 µM | 42.8 µM | 27.4 µM | 69.8 µM | 18 µM | 40.2 µM | 9.48 µM | 56.2 µM | 16.3 µM | 45.1 µM
8 | O=c1c2cc(F)ccc2sc2c(NCCCNCCO)nc3ccc(F)cc3c12 | 1.78 µM | 3.25 µM | 1.72 µM | 3.29 µM | 1.54 µM | 2.89 µM | 3.41 µM | > 100 µM | 1.84 µM | 3.63 µM | 1.62 µM | 3.2 µM | 1.49 µM | 2.91 µM | 1.91 µM | 4.03 µM | 1.52 µM | 3.07 µM | 1.53 µM | 2.97 µM
9 | CCN(CC)c1ccc(C=C2C(=O)NC(=S)NC2=O)cc1 | 2.43 µM | 5.1 µM | 3.55 µM | 13.8 µM | 5.82 µM | 18.5 µM | 1.69 µM | 10.3 µM | 3.34 µM | 8.98 µM | 3.85 µM | 13.2 µM | 3.24 µM | 9.22 µM | 1.77 µM | 4.29 µM | 14 µM | 28.6 µM | 1.72 µM | 4.5 µM
10 | CS(=O)c1cc(=O)c2ccccc2s1 (configuration not stated) | – | 8.97 µM | – | 32.3 µM | – | 3.66 µM | – | 4.67 µM | – | 5.11 µM | – | 14.4 µM | – | 6.75 µM | – | 3.07 µM | – | 20.5 µM | – | 6.2 µM
11 | O=C(/C=C/c1ccccc1)c1ccccn1 | – | 40.7 µM and 81.5 µM | 15.1 µM and 31.9 µM | 31 µM and > 100 µM | – | 28.9 µM and 31 µM | 1.96 µM and 7.94 µM | 7.7 µM and 54.6 µM | 6.9 µM and 15.4 µM | 19.4 µM and 30.3 µM | – | 37.1 µM | – | 24.9 µM and 50 µM | – | 48.2 µM and 33.2 µM | – | 45.5 µM and 41 µM | – | 33.2 µM and 64.4 µM
12 | CN1CC[C@H](N(C)C(=O)N2CC(c3cc(F)ccc3F)=C[C@@]2(CO)c2ccccc2)[C@H](F)C1 | – | 28.3 µM | 0.0259 µM | > 100 µM | 0.0373 µM and 0.0195 µM | > 100 µM | 0.00871 µM | 40.5 µM | 0.00335 µM | > 100 µM | 0.00333 µM | 77.6 µM | 0.00418 µM | > 100 µM | 0.00871 µM | – | – | > 100 µM | 0.0459 µM | > 100 µM
